The source of these data is a melting point compilation (Tetko et al.; mined from patent text by program, amines drawn as free bases though some values may be those of a salt).

Some results are limits rather than exact numbers.

Broadly, the melting point is the temperature, or range, at which the solid turns liquid. As to `Cc1ncn(Nc2cccc(Cl)c2)c1-c1cccc(Br)c1`, the melting point worked out at 164 °C.
Then `COC(=O)c1cc(Cl)c(NC(C)=O)c([N+](=O)[O-])c1O`, with 166 to 169 °C; and `CCCn1nc2c(O)nc3ccccc3c2c1CC(C)(C)O`, with 294 to 296 °C; and `Cc1cc(C)c(-n2c(C)cc(C)c(C#N)c2=O)cc1NS(=O)(=O)C(F)(F)F`, with 274 to 276 °C.
`O=C1OC(=O)c2c3ccccc3c(Cl)c3cccc1c23` came in with a melting point of 269 to 271 °C.
The figure for `O=C(N[C@@H](Cc1ccccc1)C(=O)On1nnc2ccccc21)OCc1ccccc1` is 120 to 125 °C; for `CCCOC(C)c1ccc(OCc2ccccc2)cc1` (single isomer, unassigned; (+)) it is 51 to 53 °C; for `COC(=O)C(C#N)=C(N)c1c(-c2ccccc2)noc1N` it is 256 °C.
As to `CC(COc1ccc(-c2ccc(C#N)cc2)cc1)N(O)C=O` (stereo not given), the melting point lay within 141 to 144 °C.
The figure for `CON=Cc1nn(-c2c(Cl)cc(C(F)(F)F)cc2Cl)c(N)c1S(C)=O` (stereo not given) is 80 °C; for `CC(=O)c1c(C)[nH]c(-c2ccccc2)c1N=Cc1ccc(Cl)cc1` it is 214 to 215 °C; for `CC(C)NS(=O)(=O)c1cc(Br)cc(Br)c1` it is 105 to 107 °C.
As for `OCc1cc(Cl)ccc1I`, the melting point lay within 115 to 117 °C.
The figure for `CCC1(CC)c2cc(I)ccc2-c2ccc(C=O)cc21` is 138 to 140 °C; for `COC(=O)n1cc2c(c1)C(OC(C)=O)N=C(c1ccccc1Cl)c1cc(Cl)ccc1-2` (stereo not given) it is 175 to 177 °C.
`COC(=O)COc1cccc(CNC(=O)C2Cc3ccccc3N2S(=O)(=O)c2ccc(-c3cccc(C(F)(F)F)c3)cc2)c1` (stereo not given) returned a melting point of 50 °C.
The figure for `COc1cccc2cc(C(=O)c3ccc(Cl)c(S(=O)(=O)Cl)c3)oc12` is 143 to 145 °C; for `NC(=O)Cn1c(=O)c2ncn3c2n(c1=O)CC=C3c1cccc(C(F)(F)F)c1` it is 283 to 285 °C; for `O=c1c2c([nH]n1-c1c(F)cc(Cl)c3nc(Cl)sc13)CCCC2` it is 191 to 197 °C.
In the case of `S=C(Nc1ccc(Br)cn1)N[C@@H]1C[C@@H]1c1ccccc1`, the melting point lay within 192 to 193 °C.
Molecule `CCCNc1nc(C#N)c(C#N)nc1SCc1ccccc1` displayed a melting point of 153 to 156 °C.
The figure for `NCc1c(N)cccc1Oc1ccccc1` is 69 to 71 °C; for `CNc1nc(N2CCN(Cc3ccccc3)CC2)ncc1CCO` it is 119 to 120 °C.
For `CCC1CCC(Oc2cc(F)cc(C(=O)Nc3ccc(OCCN4CCOCC4)c4ccccc34)c2)CC1` (stereo not given), the melting point lay in the range of 102 to 105 °C.
For the molecule `CCOc1ccc(-c2ccc3c(c2)C=C(C(=O)OC)CCN3C=O)cc1F`, the melting point fell in the range of 126 to 128 °C.
The figure for `NS(=O)(=O)c1ccc(-n2nc(C(F)(F)F)cc2-c2ccc(-c3cscn3)c(F)c2)cc1F` is 196 to 198 °C; for `C(=Cc1ccc(-c2ccc(OCCCN3CCCCC3)cc2)cc1)CN1CCCCC1` it is 100 to 105 °C; for `O=C(O)c1cccc2nc(C(F)(F)C(F)(F)C(F)(F)F)n(Cc3ccccc3Cl)c12` it is 213 to 214 °C.
Then `CCCCc1nn(Cc2ccc(C(=O)O)cc2)c2ccccc2c1=O`, with 220 °C; and `CCCCCCCCCCCCCCOc1ccc(CNC(=O)NCc2ccccn2)cc1`, with 108 to 109 °C.
Molecule `NS(=O)(=O)Nc1cccc(-c2cccc(-c3nc(-c4ccc(C(F)(F)F)cc4)cc(C(F)(F)F)n3)c2)c1` displayed a melting point of 174 °C.
The figure for `COc1ccc2[nH]c3c(c4c(c5c6cc(OC)ccc6n(C)c35)C(=O)N(C)C4=O)c2c1` is greater than 330 °C.
`CCCCc1c(C)[nH]c(C(=O)OCC)c1OCC1CO1` (stereo not given) had a melting point of 125 to 127 °C.
`CCOc1nc(Cc2ccc(Cl)cc2)nc(O)c1NC(=O)c1ccco1` showed a melting point of 91.5 to 92.5 °C.
Then `Nc1cc(C=O)nc(-c2ccc(C(F)(F)F)nc2)c1F`, with 166 to 167 °C.
Consider `CC(=O)NC[C@H]1CN(c2ccc(N3CC(=O)C3)c(F)c2)C(=O)O1`, for which the melting point lay in the range of 192 to 193 °C.
Then `CCOC(=O)Nc1nc(CC(=O)OC)ns1`, with 110 to 112 °C; and `COc1cc2c(c(Cl)c1Cl)C(=O)c1ccccc1-2`, with 268 to 270 °C; and `c1ccc(-c2nc3ccccc3o2)nc1`, with 105 to 107 °C.
The figure for `C[C@H](NCc1ccc(OCc2ccccc2F)c(Cc2ccccc2F)c1)C(N)=O` is 161 °C; for `N=C(NCc1c(F)cccc1F)NN=Cc1c(Cl)cccc1Cl` it is 168 to 170 °C; for `COC(=O)c1coc2ccc(C)cc12` it is 40 to 41 °C.
On to `CCC1c2ncn(CC)c2CCN1C(=S)NC(C)C` (stereo not given), for which the melting point came to 196 °C.
Turning to `CCSCCc1c(-c2ccccc2)nc(N)n2ncnc12`, the melting point is 120 to 122 °C.
Then `Cc1ccc(S(=O)(=O)n2cc(I)nc2C)cc1`, with 112 to 114 °C; and `CC(=O)c1cc(N2CCCC2)ccc1NC(=O)c1ccccc1OCc1ccccc1`, with 160 to 161 °C.
Turning to `Cc1ncnc(-c2ccncc2)n1`, the melting point was in the range of 99 to 102 °C.
`O=C(O)CCCc1cc2nc(Cl)ccc2n1S(=O)(=O)c1cccc(-c2cncs2)c1` yielded a melting point of 157 to 160 °C.
`CNC(=O)Oc1ccc2oc3ccccc3c2c1` gave a melting point of 155 to 156 °C.
The figure for `OCCCCOc1cccc(/C=C/c2nc3ccccc3s2)c1` is 88 to 90 °C; for `CCN(CC)C(=O)COc1ccc(CCCOC(=O)NCC2CC2)c(Oc2ncc(C(F)(F)F)cc2Cl)c1` it is 94 to 94.5 °C; for `Cc1cccc(C=NN2CCN(C3c4ccccc4C=C(C#N)c4ccccc43)CC2)n1` (stereo not given) it is 200 to 202 °C.
For `O=C1CCc2c(Cl)cc(F)cc21`, the melting point lay in the range of 94 to 96 °C.
For the molecule `Clc1cccc(-c2nc(NC3CCCCC3)c3ccccc3n2)n1`, the melting point fell in the range of 218 to 221 °C.
Then `CCOCc1nc2c(N)nc3cc(-c4cccc(C(=O)N5CCOCC5)c4)cnc3c2n1CC(C)(C)O`, with 149 to 152 °C; and `Clc1ccc(-c2ccc3nncn3c2)cc1`, with 259 to 262 °C.
The figure for `O=C(CCl)Nc1ccc(OCc2nc3ccccc3s2)cc1` is 196 to 197 °C; for `CCOC(=O)N[C@@H]1CCc2ccccc2[C@H]1Nc1ccccc1CO` (relative stereo) it is 134 to 135 °C.
`O=C(O)c1ccc(C(=O)c2ccc(Br)cc2)cc1` came in with a melting point of 270 to 271 °C.
With `CNC(=O)C1SCOC(=NO)S1` (stereo not given), the melting point lay within 99 to 102 °C.
Then `Cc1ccccc1C(=O)N1CCc2nnc(Cl)cc2C1`, with 123 to 126 °C; and `CCCN(CCC)CCc1ccc(OC)c(C(=O)O)c1OC`, with 174 to 177 °C.
With `CCOC(=O)COc1ccc(C23CC4CC(CC(C4)C2)C3)cc1`, the melting point is 89 to 90 °C.
The figure for `CN[C@@H]1CN(c2c(F)cc3c(=O)c(C(=O)O)cn([C@@H]4C[C@@H]4F)c3c2C)C[C@@H]1C(C)C` is 168 to 171 °C.
The figure for `C=CCN(CC=C)c1nc(NC(=O)Cc2ccccc2)n2oc(=O)nc2n1` is 165 to 167 °C; for `CC1CC(c2cc3ccc(F)cc3s2)CCN1` (stereo not given) it is 34 to 37 °C.
As to `O=C(O)COc1ccc2cc(-c3cnc(Cc4ccc5ccccc5c4)o3)ccc2c1`, the melting point lay in the range of 258 to 260 °C.
Then `Oc1c2c(nn1-c1ccccn1)CCc1cc(Br)ccc1-2`, with 164 to 165 °C.
`Cc1[nH]cnc1CN1CC2COc3ccccc3N2C1=O` (stereo not given) came in with a melting point of 212 to 216 °C.
The figure for `CCCc1c(CSc2ncccc2OCC(=O)OCC)ccc(C(C)=O)c1O` is 98 to 100 °C.
The figure for `CC(=O)NC(=CC(=O)[C@H](Cc1ccccc1)N(Cc1ccccc1)Cc1ccccc1)Cc1ccccc1` is 95 to 96 °C; for `CC(=O)Oc1ccc(-c2c(C)c3ccc(F)cc3oc2=O)c(OC(C)=O)c1` it is 148 to 149 °C; for `CCOC(=O)c1cn2c3c(c(Cl)ccc3c1=O)N(C)CC2C` (stereo not given) it is 259 to 261 °C.
As to `CCOP(=O)(OCC)C1Cc2cc(C(F)(F)F)cc3[nH]c(=O)c(=O)n(c23)C1` (stereo not given), the melting point worked out at 253 °C.
Turning to `Brc1ccc(SC2CCN(C(c3ccccc3)(c3ccccc3)c3ccccc3)CC2)cc1`, the melting point lay in the range of 174 to 175 °C.
`CC(C)Nc1cccnc1N1CCN(C(=O)c2ccc(C(=O)N(CCO)c3ccccc3)cc2)CC1` came in with a melting point of 71 to 72 °C.
Molecule `CCOC(=O)c1c[nH]nc1NCc1ccc(OC)c(OC2CCCC2)c1` displayed a melting point of 102 to 104 °C.
Then `Fc1ccc(Cn2c(OC3CCN(Cc4ccccc4)CC3)nc3cncnc32)cc1`, with 117 °C.
`CCN(C)c1nc2cc(NC(=O)c3c(C(=O)N4CCC4)cnn3C)ccn2n1` returned a melting point of 229 to 232 °C.
With `O=C(O)C1(CCCCCCCCCCCCC2(C(=O)NCCO)CC2)CC1`, the melting point is 81.1 to 83.8 °C.
Then `Cn1cc(C(=O)NCc2ccc(Cl)cc2)c(=O)c2cc(I)sc21`, with 236 to 237 °C.
`COC(C)=CC(=O)NC1CCCC1` displayed a melting point of 94 °C.
`Fc1cc(/C=C/c2nc(COc3ccc(CCCCn4ccnn4)cc3)co2)ccc1Cl` displayed a melting point of 146 to 149 °C.
The figure for `C#CCn1c(-c2cc(Cl)nc(Cl)c2)nc(O)c(OC)c1=O` is 227 to 228 °C.
Then `COC(=O)c1ccc(CCC(=O)/C=C/c2ccc(O)c(OC)c2)o1`, with 93 to 94 °C; and `COC(=O)NNC(=O)C(F)(F)F`, with 105 °C; and `CCCCC(CC)Cn1c2ccc(Br)cc2c2cc(Br)ccc21` (stereo not given), with 62.4 to 63.6 °C.
For the molecule `CCCCNCc1cn(CCC(=O)NC(C)(C)c2ccc(Cl)cc2)cn1`, the melting point was 115 to 117 °C.
Take `COC(=O)c1ncn2c1C(C)N=C(c1ccccc1F)c1cc(Cl)ccc1-2` (stereo not given): the melting point lay within 190 to 191 °C.
Then `CN1CCC(c2c[nH]c3ccc(NC(=O)c4ccccc4F)nc23)CC1`, with 125 to 126 °C.
